“Also recorded” adds a separate entry of the source.
Tests used:
[1] = test system: HeLa cells; test: Immunofluorescence: subcellular localization / phase separation of the protein itself; assay type: cell-based; conditions: confocal fluorescence microscopy
Procedure: HeLa cells were cultured under sterile conditions with Dulbecco’s modified Eagle’s medium (DMEM) (Gibco) supplemented with 10% fetal bovine serum and antibiotics/antimycotics (Gibco) (see Table S5 for key reagents and resources). T-REx-293 cells (cat. no. R710-07) were obtained from Invitrogen. Cells were grown on DMEM supplemented with 10% fetal bovine serum (Gibco), GlutaMax (Gibco), and Penicillin-Streptomycin (Gibco) and kept under selection by 5 μg/ml blasticidin. All cells were grown at 37 °C under 5% CO2 and were mycoplasma free at the time the experiments were performed.
A plasmid encoding full-length human Pdx1 (amino acids 1-283) in pcDNA3.1 with a C-terminal GFP tag was purchased from GenScript. Full-length mouse SPOP (identical to the human sequence) with a V5 epitope tag in pcDNA3 was generated previously ([21]). The coding sequence for full-length mouse SPOP was inserted into pcDNA4/TO/myc (Invitrogen) for the T-REx system. pcDNA3-myc-CUL3 (cat no. 19893) and pcDNA–HA2–ROC1 (Rbx1) (cat no. 19897) were obtained from Addgene. pcDNA3 containing His-ubiquitin was a gift from Wenyi Wei.
For immunofluorescence experiments, 0.5 × 10^6 cells were seeded on borosilicate glass coverslips in 6-well plates. After 24 h, cells were transfected with 400 ng of each plasmid using the Qiagen Effectene transfection reagent according to the manufacturer protocol. 24 h after transfection, the cells were treated with 4% paraformaldehyde in PBS for 30 min at RT. Cells were permeabilized with 0.1% Triton X-100 in PBS (PBST) for 5 min at 21 °C, followed by blocking in 0.5% BSA in PBST for 1 h at 21 °C. Signal from GFP-tagged proteins was observed directly. […] All images were analyzed and prepared in Fiji ([53]).
All immunofluorescence data were averaged over three biological replicates. […] Next, the raw GFP intensity data points (one data point per cell analyzed) were plotted to generate a violin plot distribution. […]

[2] = biological target: T1, SPOP28–359 (Homo sapiens, UniProt O43791); test: Competition fluorescence anisotropy, displacement of f-Puc from oligomeric SPOP28–359; assay type: binding; conditions: competition FA; Fig. 5B and Table S4
T1 construct: A plasmid encoding His–SUMO–SPOP human residues 28 to 359; His-SUMO (N, cleaved yes); made in house; host or cells: E. coli Rosetta BL-21(DE3)
Excerpt: An Escherichia coli codon-optimized DNA sequence encoding amino acids 205 to 283 of the human Pdx1 sequence (Pdx1-C) in the multiple cloning site of pET49b(+) was purchased from GeneArt (Thermo Fisher). The pET49b(+) backbone encodes for N-terminal glutathione S-transferase and 6X His tags, followed by a 3C protease recognition motif. In all experiments described herein, a mutant containing an exogenous tryptophan at the N terminus of the human Pdx1-C sequence was used for the purposes of quantitation. Mutations in Pdx1-C were generated by Q5 site-directed mutagenesis (New England Biolabs) with primers designed on NEBbasechanger.com according to the manufacturer protocol. […]
All FA experiments were conducted in 50 mM sodium phosphate, pH 6.5, 50 mM sodium chloride, 5 mM DTT, 1% BSA, and 0.01% Triton X-100. In all experiments, the source of fluorescence signal was f-Puc purchased from GenScript, at a final concentration of 40 nM. […] The fluorescence polarization of each well was measured (from which FA was calculated) using either a TECAN Infinite M1000 Pro or BioTek Synergy 4 fluorometer. […] FA data points were fit to a complete competitive binding model ([23]) to determine dissociation constants using in-house Python scripts (see Quantification and statistical analysis). […]

T1 sequence (O43791 28-359): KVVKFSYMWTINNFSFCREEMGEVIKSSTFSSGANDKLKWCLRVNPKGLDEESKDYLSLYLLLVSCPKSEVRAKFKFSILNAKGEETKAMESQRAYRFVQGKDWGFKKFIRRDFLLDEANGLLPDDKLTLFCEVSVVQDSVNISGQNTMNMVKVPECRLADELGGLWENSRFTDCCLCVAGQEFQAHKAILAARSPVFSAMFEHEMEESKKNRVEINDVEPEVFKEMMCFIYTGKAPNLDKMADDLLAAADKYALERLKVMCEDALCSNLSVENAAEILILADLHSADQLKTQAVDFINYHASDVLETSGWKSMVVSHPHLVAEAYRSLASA

enhancement in binding affinity to oligomeric SPOP28–359 compared with SPOP–MATH [2]: ~10 fold
Substance: Pdx1: full-length human Pdx1 (amino acids 1-283) with a C-terminal GFP tag
localization / phase separation in cells [1]: did not undergo observable partitioning to any nuclear body; also recorded: do not form phase-separated compartments in cells
localization / phase separation in cells ([1]; listed as GFP–Pdx1): does not localize to punctate structures in cells; also recorded: localizes to the nucleus (marked by DAPI, blue) and does not perturb the formation of or partition to nuclear speckles

Reference: publication PMC8138767, “Intrinsically disordered substrates dictate SPOP subnuclear localization and ubiquitination activity” (The Journal of Biological Chemistry, 2021)
